In paper PMC11480411, “Mucosal sugars delineate pyrazine vs pyrazinone autoinducer signaling in Klebsiella oxytoca” (Nature Communications, 2024):

Legend:
Experiment in all cases: PRESTO-Tango GPCR screen
Format in all cases: cell-based
Settings in all cases: 100 µM
CALCRb = target: T1, CALCRb (Homo sapiens, UniProt P30988)
T1 construct: purchased PRESTO-Tango GPCR kit (Roth lab / Addgene)
Experimental: (§1) The PRESTO-Tango analyses were performed as previously published. Briefly, HTLA cells, a HEK293 cell line that stably expresses β-arrestin-TEV and tTA-Luciferase (a kind gift from Gilad Barnea, Brown University), were plated in 96-well tissue culture plates (Eppendorf) in DMEM containing 10% FBS and 1% Penicillin/Streptomycin. One day after plating (after reaching approximately 90% confluence), 200 ng per well GPCR-Tango plasmids[37] in 20 μL DMEM were individually mixed with 400 ng polyethylenimine (Polysciences) in an equal volume of DMEM and incubated for 20 min at room temperature before adding the transfection mixture to the HTLA cells. 16-24 h after transfection, medium was replaced with 180 μL fresh DMEM containing 1% Penicillin/Streptomycin and 10 mM HEPES and 20 μL of 3 or 3-Homo to reach a final concentration of 100 μM. Supernatants were aspirated 20 h after stimulation and 50 μl per well of Bright-Glo solution (Promega) diluted 20-fold with PBS containing 20 mM HEPES was added into each well. After 15 min incubation at room temperature, luminescence was quantified using a Spectramax i3x microplate reader (Molecular Devices). Activation fold for each sample was calculated by dividing relative luminescence units (RLU) for each condition by RLUs from PBS control. Dose response curves of each chemical were performed in a similar way with varying the ligand concentration from 10^−4 M to 10^−15 M.

CCR4 = target: T2, CCR4 (Homo sapiens, UniProt P51679)
T2 construct: purchased PRESTO-Tango GPCR kit (Roth lab / Addgene)
Experimental: as §1

CD97 = target: T3, CD97 (Homo sapiens, UniProt P48960)
T3 construct: purchased PRESTO-Tango GPCR kit (Roth lab / Addgene)
T3 sequence (P48960 21-835): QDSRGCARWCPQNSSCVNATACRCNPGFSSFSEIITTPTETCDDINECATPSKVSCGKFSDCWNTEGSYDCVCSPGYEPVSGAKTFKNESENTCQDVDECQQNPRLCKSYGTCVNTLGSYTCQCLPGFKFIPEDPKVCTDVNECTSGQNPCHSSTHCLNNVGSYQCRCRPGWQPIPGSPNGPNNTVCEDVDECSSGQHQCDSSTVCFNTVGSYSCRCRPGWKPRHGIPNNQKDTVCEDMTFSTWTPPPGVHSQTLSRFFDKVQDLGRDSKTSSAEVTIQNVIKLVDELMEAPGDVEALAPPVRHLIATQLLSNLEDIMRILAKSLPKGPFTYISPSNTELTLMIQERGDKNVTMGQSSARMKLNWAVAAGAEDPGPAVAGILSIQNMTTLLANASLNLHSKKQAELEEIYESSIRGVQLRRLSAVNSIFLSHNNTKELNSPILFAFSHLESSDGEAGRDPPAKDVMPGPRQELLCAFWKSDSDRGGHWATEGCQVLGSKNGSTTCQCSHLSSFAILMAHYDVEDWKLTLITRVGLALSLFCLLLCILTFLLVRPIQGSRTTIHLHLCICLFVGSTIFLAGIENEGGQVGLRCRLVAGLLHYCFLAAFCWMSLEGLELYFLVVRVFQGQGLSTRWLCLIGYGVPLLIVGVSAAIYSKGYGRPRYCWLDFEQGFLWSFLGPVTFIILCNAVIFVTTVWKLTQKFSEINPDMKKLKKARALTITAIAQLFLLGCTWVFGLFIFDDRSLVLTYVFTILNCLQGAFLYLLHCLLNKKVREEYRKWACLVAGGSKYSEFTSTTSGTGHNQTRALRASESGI
Experimental: as §1

CXCR2 = target: T4, CXCR2 (Homo sapiens, UniProt P25025)
T4 construct: purchased PRESTO-Tango GPCR kit (Roth lab / Addgene)
T4 sequence (P25025 whole entry): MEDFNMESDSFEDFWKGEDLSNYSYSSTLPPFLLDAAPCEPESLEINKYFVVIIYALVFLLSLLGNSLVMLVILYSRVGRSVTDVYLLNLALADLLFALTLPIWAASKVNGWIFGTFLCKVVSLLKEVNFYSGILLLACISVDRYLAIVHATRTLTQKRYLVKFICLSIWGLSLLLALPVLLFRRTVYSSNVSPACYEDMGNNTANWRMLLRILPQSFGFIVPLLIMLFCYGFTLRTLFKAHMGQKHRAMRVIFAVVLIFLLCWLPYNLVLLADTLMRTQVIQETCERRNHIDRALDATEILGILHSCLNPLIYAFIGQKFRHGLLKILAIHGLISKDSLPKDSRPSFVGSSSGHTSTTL
Experimental: as §1

GIPR = target: T5, GIPR (Homo sapiens, UniProt P48546)
T5 construct: purchased PRESTO-Tango GPCR kit (Roth lab / Addgene)
Experimental: as §1

GLP2R = target: T6, GLP2R (Homo sapiens, UniProt O95838)
T6 construct: purchased PRESTO-Tango GPCR kit (Roth lab / Addgene)
Experimental: as §1

GPR114 = target: T7, GPR114 (Homo sapiens, UniProt Q8IZF4)
T7 construct: purchased PRESTO-Tango GPCR kit (Roth lab / Addgene)
Experimental: as §1

GPR142 = target: T8, GPR142 (Homo sapiens, UniProt Q7Z601)
T8 construct: purchased PRESTO-Tango GPCR kit (Roth lab / Addgene)
Experimental: as §1

GPR151 = target: T9, GPR151 (Homo sapiens, UniProt Q8TDV0)
T9 construct: purchased PRESTO-Tango GPCR kit (Roth lab / Addgene)
Experimental: as §1

GPR158 = target: T10, GPR158 (Homo sapiens, UniProt Q5T848)
T10 construct: purchased PRESTO-Tango GPCR kit (Roth lab / Addgene)
Experimental: as §1

GPR22 = target: T11, GPR22 (Homo sapiens, UniProt Q99680)
T11 construct: purchased PRESTO-Tango GPCR kit (Roth lab / Addgene)
Experimental: as §1

GPR31 = target: T12, GPR31 (Homo sapiens, UniProt O00270)
T12 construct: purchased PRESTO-Tango GPCR kit (Roth lab / Addgene)
Experimental: as §1

GPR52 = target: T13, GPR52 (Homo sapiens, UniProt Q9Y2T5)
T13 construct: purchased PRESTO-Tango GPCR kit (Roth lab / Addgene)
Experimental: as §1

GPR55 = target: T14, GPR55 (Homo sapiens, UniProt Q9Y2T6)
T14 construct: purchased PRESTO-Tango GPCR kit (Roth lab / Addgene)
Experimental: as §1

GPR68 = target: T15, GPR68 (Homo sapiens, UniProt Q15743)
T15 construct: purchased PRESTO-Tango GPCR kit (Roth lab / Addgene)
T15 sequence (Q15743 whole entry): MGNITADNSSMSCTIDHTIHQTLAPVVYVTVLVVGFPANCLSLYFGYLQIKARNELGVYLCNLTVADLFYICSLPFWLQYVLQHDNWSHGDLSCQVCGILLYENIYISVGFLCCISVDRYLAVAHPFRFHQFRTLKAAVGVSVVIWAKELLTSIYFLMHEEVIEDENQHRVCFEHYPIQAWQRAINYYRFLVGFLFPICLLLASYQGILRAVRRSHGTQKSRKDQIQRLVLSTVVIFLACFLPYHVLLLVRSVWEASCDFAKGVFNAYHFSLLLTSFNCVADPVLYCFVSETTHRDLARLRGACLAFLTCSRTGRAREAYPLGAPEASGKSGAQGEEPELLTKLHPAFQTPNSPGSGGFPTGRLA
Experimental: as §1

GPR77 = target: T16, GPR77 (Homo sapiens, UniProt Q9P296)
T16 construct: purchased PRESTO-Tango GPCR kit (Roth lab / Addgene)
Experimental: as §1

GPR78 = target: T17, GPR78 (Homo sapiens, UniProt Q96P69)
T17 construct: purchased PRESTO-Tango GPCR kit (Roth lab / Addgene)
Experimental: as §1

GPR97 = target: T18, GPR97 (Homo sapiens, UniProt Q86Y34)
T18 construct: purchased PRESTO-Tango GPCR kit (Roth lab / Addgene)
Experimental: as §1

GRM1 = target: T19, GRM1 (Homo sapiens, UniProt Q13255)
T19 construct: purchased PRESTO-Tango GPCR kit (Roth lab / Addgene)
Experimental: as §1

HCA3 = target: T20, HCA3 (Homo sapiens, UniProt P49019)
T20 construct: purchased PRESTO-Tango GPCR kit (Roth lab / Addgene)
T20 sequence (P49019 whole entry): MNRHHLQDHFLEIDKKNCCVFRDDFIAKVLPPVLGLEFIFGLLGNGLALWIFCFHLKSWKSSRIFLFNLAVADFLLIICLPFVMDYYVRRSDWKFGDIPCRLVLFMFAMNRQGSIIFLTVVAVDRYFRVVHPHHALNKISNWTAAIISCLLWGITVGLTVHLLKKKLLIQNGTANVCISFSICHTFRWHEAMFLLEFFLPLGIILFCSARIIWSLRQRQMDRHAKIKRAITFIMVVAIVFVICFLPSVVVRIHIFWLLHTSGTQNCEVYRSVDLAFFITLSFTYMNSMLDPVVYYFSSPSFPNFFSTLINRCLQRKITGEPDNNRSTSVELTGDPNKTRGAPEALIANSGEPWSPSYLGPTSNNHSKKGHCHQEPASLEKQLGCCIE
Experimental: as §1

HTR1E = target: T21, HTR1E (Homo sapiens, UniProt P28566)
T21 construct: purchased PRESTO-Tango GPCR kit (Roth lab / Addgene)
Experimental: as §1

KISSPEPTIN-R = target: T22, KISSPEPTIN-R (Homo sapiens, UniProt Q969F8)
T22 construct: purchased PRESTO-Tango GPCR kit (Roth lab / Addgene)
T22 sequence (Q969F8 whole entry): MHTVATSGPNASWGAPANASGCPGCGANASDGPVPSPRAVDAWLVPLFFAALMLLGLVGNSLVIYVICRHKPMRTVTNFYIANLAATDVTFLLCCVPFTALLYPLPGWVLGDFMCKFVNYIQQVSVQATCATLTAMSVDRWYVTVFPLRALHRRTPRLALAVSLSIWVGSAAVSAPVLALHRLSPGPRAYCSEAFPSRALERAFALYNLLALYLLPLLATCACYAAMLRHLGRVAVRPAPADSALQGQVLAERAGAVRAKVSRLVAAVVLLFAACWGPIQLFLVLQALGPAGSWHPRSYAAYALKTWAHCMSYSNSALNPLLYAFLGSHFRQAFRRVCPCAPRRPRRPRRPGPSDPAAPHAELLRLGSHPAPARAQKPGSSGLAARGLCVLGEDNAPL
Experimental: as §1

MAS1L = target: T23, MAS1L (Homo sapiens, UniProt P35410)
T23 construct: purchased PRESTO-Tango GPCR kit (Roth lab / Addgene)
T23 sequence (P35410 whole entry): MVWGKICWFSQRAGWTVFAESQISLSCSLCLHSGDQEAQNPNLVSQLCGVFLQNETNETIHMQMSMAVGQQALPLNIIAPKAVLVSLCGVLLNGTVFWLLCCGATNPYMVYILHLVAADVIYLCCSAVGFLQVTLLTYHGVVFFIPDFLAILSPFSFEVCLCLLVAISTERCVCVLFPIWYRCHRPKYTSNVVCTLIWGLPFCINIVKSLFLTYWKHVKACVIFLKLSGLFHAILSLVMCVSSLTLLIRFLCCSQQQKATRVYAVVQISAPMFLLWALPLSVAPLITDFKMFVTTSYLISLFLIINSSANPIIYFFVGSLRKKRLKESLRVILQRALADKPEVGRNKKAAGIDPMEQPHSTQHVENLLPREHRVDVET
Experimental: as §1

MCHR1 = target: T24, MCHR1 (Homo sapiens, UniProt Q99705)
T24 construct: purchased PRESTO-Tango GPCR kit (Roth lab / Addgene)
Experimental: as §1

MRGPRD = target: T25, MRGPRD (Homo sapiens, UniProt Q8TDS7)
T25 construct: purchased PRESTO-Tango GPCR kit (Roth lab / Addgene)
Experimental: as §1

MRGPRG = target: T26, MRGPRG (Homo sapiens, UniProt Q86SM5)
T26 construct: purchased PRESTO-Tango GPCR kit (Roth lab / Addgene)
Experimental: as §1

MTNR1B = target: T27, MTNR1B (Homo sapiens, UniProt P49286)
T27 construct: purchased PRESTO-Tango GPCR kit (Roth lab / Addgene)
T27 sequence (P49286 whole entry): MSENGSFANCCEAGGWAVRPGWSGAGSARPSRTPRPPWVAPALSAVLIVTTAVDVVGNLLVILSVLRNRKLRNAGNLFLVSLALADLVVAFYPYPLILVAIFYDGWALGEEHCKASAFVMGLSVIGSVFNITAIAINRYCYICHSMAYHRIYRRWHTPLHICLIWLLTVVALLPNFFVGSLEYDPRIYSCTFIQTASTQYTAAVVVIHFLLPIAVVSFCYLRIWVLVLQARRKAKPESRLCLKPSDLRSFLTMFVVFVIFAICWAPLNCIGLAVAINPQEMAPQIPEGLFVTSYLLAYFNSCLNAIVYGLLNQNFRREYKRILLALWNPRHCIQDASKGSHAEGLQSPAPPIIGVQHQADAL
Experimental: as §1

NMUR2 = target: T28, NMUR2 (Homo sapiens, UniProt Q9GZQ4)
T28 construct: purchased PRESTO-Tango GPCR kit (Roth lab / Addgene)
T28 sequence (Q9GZQ4 whole entry): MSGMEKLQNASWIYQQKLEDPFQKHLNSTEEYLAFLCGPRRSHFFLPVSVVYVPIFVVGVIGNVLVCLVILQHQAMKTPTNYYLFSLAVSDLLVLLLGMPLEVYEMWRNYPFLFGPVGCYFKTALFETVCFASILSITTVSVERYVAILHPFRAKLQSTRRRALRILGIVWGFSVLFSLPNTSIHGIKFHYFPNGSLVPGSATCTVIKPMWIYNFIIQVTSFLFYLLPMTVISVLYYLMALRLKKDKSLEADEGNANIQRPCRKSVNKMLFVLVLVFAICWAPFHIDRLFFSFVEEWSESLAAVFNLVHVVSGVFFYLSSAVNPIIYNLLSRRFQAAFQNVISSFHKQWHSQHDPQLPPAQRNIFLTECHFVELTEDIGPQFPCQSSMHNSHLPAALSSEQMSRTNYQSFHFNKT
Experimental: as §1

OPRD1 = target: T29, OPRD1 (Homo sapiens, UniProt P41143)
T29 construct: purchased PRESTO-Tango GPCR kit (Roth lab / Addgene)
Experimental: as §1

PTGIR = target: T30, PTGIR (Homo sapiens, UniProt P43119)
T30 construct: purchased PRESTO-Tango GPCR kit (Roth lab / Addgene)
Experimental: as §1

S1PR5 = target: T31, S1PR5 (Homo sapiens, UniProt Q9H228)
T31 construct: purchased PRESTO-Tango GPCR kit (Roth lab / Addgene)
Experimental: as §1

SCTR = target: T32, SCTR (Homo sapiens, UniProt P47872)
T32 construct: purchased PRESTO-Tango GPCR kit (Roth lab / Addgene)
T32 sequence (P47872 23-440): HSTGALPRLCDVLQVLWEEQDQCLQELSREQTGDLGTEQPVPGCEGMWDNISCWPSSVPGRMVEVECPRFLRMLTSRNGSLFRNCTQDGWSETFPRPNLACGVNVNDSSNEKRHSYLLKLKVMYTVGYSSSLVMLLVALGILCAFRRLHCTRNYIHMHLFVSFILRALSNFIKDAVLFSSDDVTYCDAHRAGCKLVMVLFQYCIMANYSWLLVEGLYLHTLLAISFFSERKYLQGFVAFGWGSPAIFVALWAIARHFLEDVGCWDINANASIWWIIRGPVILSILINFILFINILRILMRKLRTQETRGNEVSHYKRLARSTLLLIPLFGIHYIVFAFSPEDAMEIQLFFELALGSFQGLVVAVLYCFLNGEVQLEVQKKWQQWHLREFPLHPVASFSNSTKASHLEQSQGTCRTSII
Experimental: as §1

SSTR3 = target: T33, SSTR3 (Homo sapiens, UniProt P32745)
T33 construct: purchased PRESTO-Tango GPCR kit (Roth lab / Addgene)
Experimental: as §1

SSTR4 = target: T34, SSTR4 (Homo sapiens, UniProt P31391)
T34 construct: purchased PRESTO-Tango GPCR kit (Roth lab / Addgene)
T34 sequence (P31391 whole entry): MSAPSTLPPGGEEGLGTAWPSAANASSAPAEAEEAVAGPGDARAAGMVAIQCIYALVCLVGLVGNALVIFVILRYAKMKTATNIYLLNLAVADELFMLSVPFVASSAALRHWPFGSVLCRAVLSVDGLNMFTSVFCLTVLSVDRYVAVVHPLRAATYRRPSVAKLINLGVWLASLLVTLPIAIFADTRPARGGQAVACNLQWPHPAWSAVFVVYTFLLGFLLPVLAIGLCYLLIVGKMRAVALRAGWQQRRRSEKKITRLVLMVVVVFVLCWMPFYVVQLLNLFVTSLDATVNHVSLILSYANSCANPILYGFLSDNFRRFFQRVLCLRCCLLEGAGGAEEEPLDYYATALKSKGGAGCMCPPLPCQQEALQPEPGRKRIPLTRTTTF
Experimental: as §1

TACR2 = target: T35, TACR2 (Homo sapiens, UniProt P21452)
T35 construct: purchased PRESTO-Tango GPCR kit (Roth lab / Addgene)
Experimental: as §1

T1 sequence (P30988 25-490 isoform P30988-1 limits assumed): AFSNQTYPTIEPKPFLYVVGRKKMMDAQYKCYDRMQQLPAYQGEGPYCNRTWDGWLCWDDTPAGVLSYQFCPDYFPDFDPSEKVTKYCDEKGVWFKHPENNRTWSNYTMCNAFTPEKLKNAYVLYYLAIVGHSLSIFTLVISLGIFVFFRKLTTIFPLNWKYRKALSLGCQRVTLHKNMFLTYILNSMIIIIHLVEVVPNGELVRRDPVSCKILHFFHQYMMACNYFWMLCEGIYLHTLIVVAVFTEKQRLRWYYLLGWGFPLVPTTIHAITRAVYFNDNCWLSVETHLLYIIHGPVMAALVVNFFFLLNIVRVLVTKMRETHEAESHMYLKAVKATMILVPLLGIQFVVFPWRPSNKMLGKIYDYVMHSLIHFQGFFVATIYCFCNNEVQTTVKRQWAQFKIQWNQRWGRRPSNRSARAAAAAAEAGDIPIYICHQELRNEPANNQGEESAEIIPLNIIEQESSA

| SMILES | GPCR activation (heatmap value) (CALCRb) | GPCR activation (heatmap value) (CCR4) | GPCR activation (heatmap value) (CD97) | GPCR activation (heatmap value) (CXCR2) | GPCR activation (heatmap value) (GIPR) | GPCR activation (heatmap value) (GLP2R) | GPCR activation (heatmap value) (GPR114) | GPCR activation (heatmap value) (GPR142) | GPCR activation (heatmap value) (GPR151) | GPCR activation (heatmap value) (GPR158) | GPCR activation (heatmap value) (GPR22) | GPCR activation (heatmap value) (GPR31) | GPCR activation (heatmap value) (GPR52) | GPCR activation (heatmap value) (GPR55) | GPCR activation (heatmap value) (GPR68) | GPCR activation (heatmap value) (GPR77) | GPCR activation (heatmap value) (GPR78) | GPCR activation (heatmap value) (GPR97) | GPCR activation (heatmap value) (GRM1) | GPCR activation (heatmap value) (HCA3) | further results |
| --- | --- | --- | --- | --- | --- | --- | --- | --- | --- | --- | --- | --- | --- | --- | --- | --- | --- | --- | --- | --- | --- |
| CC(C)Cc1ncc(CCCCNC(=N)N)[nH]c1=O [3-Homo] | -1.592 | 0.4296 | 0.04802 | 0.01869 | 0.1024 | -0.3479 | 0.07141 | -0.286 | 0.4419 | -0.4311 | -1.099 | 0.09636 | 0.2473 | -0.519 | -0.3643 | 0.08307 | -0.4102 | -0.2469 | -0.1347 | -0.8056 | GPCR activation (heatmap value) (HTR1E): 0.001914; GPCR activation (heatmap value) (KISSPEPTIN-R): 1.206; GPCR activation (heatmap value) (MAS1L): 0.1505; GPCR activation (heatmap value) (MCHR1): -1.3275; GPCR activation (heatmap value) (MRGPRD): 0.2698; GPCR activation (heatmap value) (MRGPRG): -0.5195; GPCR activation (heatmap value) (MTNR1B): 0.08839; GPCR activation (heatmap value) (NMUR2): 0.3619; GPCR activation (heatmap value) (OPRD1): -0.6579; GPCR activation (heatmap value) (PTGIR): -0.205; GPCR activation (heatmap value) (S1PR5): -0.7802; GPCR activation (heatmap value) (SCTR): -0.8565; GPCR activation (heatmap value) (SSTR3): 0.1422; GPCR activation (heatmap value) (SSTR4): 0.2411; GPCR activation (heatmap value) (TACR2): 0.6939 |
| CC(C)Cc1ncc(CCCNC(=N)N)[nH]c1=O [compound 3] | -0.6231 | -0.299 | 0.5 | 0.3766 | 0.1911 | 0.1898 | 0.003235 | -0.6317 | -0.03391 | -0.2474 | -1.5748 | 0.1606 | 0.9036 | 0.5927 | 0.3673 | 0.5685 | -0.2783 | -0.1675 | 0.374 | -0.032 | GPCR activation (heatmap value) (HTR1E): 0.5345; GPCR activation (heatmap value) (KISSPEPTIN-R): 0.3199; GPCR activation (heatmap value) (MAS1L): -0.3942; GPCR activation (heatmap value) (MCHR1): -0.2593; GPCR activation (heatmap value) (MRGPRD): -0.4298; GPCR activation (heatmap value) (MRGPRG): -0.5206; GPCR activation (heatmap value) (MTNR1B): -0.5682; GPCR activation (heatmap value) (NMUR2): 0.09545; GPCR activation (heatmap value) (OPRD1): 1.451; GPCR activation (heatmap value) (PTGIR): 0.2177; GPCR activation (heatmap value) (S1PR5): 0; GPCR activation (heatmap value) (SCTR): -0.3327; GPCR activation (heatmap value) (SSTR3): -0.3508; GPCR activation (heatmap value) (SSTR4): -0.01818; GPCR activation (heatmap value) (TACR2): 0.2945 |
